US11492385B2, “Long-acting co-agonists of the glucagon and GLP-1 receptors” (Merck Sharp & Dohme Corp., priority 2015, dated 2022)
Starred links: 1 amine or outer side, 2 acyl side, 3 side chain; linkers in the order of their positions; H or OH if unused. Non-standard residues stand in square brackets, D forms with d. Residues, ends and D or L forms follow the SMILES beside them. Groups on a side chain read outwards from the residue. *: point of attachment. Phe(4-CH2NH2) = NCc1ccc(C[C@H](N)C(=O)O)cc1; C16 diacid = O=C(O)CCCCCCCCCCCCCCC(=O)*; γGlu = O=C(O)[C@H](CCC(=O)[*:2])N[*:1]; Met(O2) = CS(=O)(=O)CC[C@H](N)C(=O)O; AEEA = NCCOCCOCC(=O)O; Aib = CC(C)(N)C(=O)O

Key:
human GLP1R = biological target: T1, human GLP1R (Homo sapiens, UniProt P43220); experiment: cAMP activity assay, cells expressing human GLP1R; assay type: cell-based; conditions: cAMP production, assay buffer with or without 20% human serum (not stated which)
T1 construct: expressed in transfected cells; kept under Blasticidin and Hygromycin selection
T1 sequence (P43220 24-463): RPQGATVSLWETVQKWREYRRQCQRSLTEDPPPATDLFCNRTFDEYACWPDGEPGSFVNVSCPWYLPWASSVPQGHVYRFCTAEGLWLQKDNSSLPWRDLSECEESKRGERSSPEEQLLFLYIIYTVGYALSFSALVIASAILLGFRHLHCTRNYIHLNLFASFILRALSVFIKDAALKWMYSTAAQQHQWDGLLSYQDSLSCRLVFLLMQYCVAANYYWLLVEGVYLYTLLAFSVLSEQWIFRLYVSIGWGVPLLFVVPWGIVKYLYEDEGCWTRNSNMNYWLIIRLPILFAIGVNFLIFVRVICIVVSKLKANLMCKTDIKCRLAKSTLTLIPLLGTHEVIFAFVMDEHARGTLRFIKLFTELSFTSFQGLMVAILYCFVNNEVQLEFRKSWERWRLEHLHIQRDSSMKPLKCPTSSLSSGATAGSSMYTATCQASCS
Experimental: (§1) Activity of the peptides at the Glucagon receptor (GCGR) and GLP-1 receptor (GLP1R) was measured in a cAMP activity assay. Peptides were dissolved in 100% DMSO and serially diluted to generate 10 point titrations. The peptide solutions were then transferred into 384-well assay plates (150 nL/well). […] Production of cAMP was determined using […] kits (DiscoverX) following manufacturer protocol. The plates were incubated for overnight at room temperature in the dark. Luminescence was measured using an EnVision Multilabel plate reader (Perkin Elmer). Native GLP-1 and Glucagon (Bachem) are used as control peptides. EC50 values were calculated using uses a 4 parameter logistic fit based on the Levenberg-Marquardt algorithm.

human GCGR = biological target: T2, human GCGR (Homo sapiens, UniProt P47871); experiment: cAMP activity assay, cells expressing human GCGR; assay type: cell-based; conditions: for EC50: cAMP production, cells expressing human GCGR, assay buffer with or without 20% human serum (not stated which), read-out: GCGR EC50 human; for hGCGR/hGLP1R (hTone): ratio of human GCGR EC50 to human GLP1R EC50
T2 construct: expressed in transfected cells; kept under Blasticidin and Hygromycin selection
T2 sequence (P47871 26-477): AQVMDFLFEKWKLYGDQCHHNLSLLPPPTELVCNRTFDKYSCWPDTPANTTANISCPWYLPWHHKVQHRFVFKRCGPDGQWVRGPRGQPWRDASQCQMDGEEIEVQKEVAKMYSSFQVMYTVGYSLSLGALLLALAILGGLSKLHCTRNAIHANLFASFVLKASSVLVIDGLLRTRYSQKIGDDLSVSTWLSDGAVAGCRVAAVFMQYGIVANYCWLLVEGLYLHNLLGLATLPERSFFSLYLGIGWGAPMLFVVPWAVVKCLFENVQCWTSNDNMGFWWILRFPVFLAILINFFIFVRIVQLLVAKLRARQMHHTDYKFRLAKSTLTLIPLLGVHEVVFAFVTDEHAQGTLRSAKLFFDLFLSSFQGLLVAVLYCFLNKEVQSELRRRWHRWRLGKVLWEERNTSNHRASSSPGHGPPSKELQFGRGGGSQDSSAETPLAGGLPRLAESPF
Experimental: as §1

EC50 (human GLP1R)	EC50 (human GCGR)	hGCGR/hGLP1R (hTone) (human GCGR)	SMILES
0.07 nM	0.14 nM	1.89	CC(C)C[C@H](NC(=O)[C@H](Cc1ccc(O)cc1)NC(=O)[C@H](CCCCN)NC(=O)[C@H](CO)NC(=O)[C@H](Cc1ccc(CNC(=O)COCCOCCNC(=O)COCCOCCNC(=O)CC[C@H](NC(=O)CCCCCCCCCCCCCCC(=O)O)C(=O)O)cc1)NC(=O)[C@H](CC(=O)O)NC(=O)[C@H](CO)NC(=O)[C@@H](NC(=O)[C@H](Cc1ccccc1)NC(=O)[C@@H](NC(=O)CNC(=O)[C@H](CCC(N)=O)NC(=O)C(C)(C)NC(=O)[C@@H](N)Cc1c[nH]cn1)[C@@H](C)O)[C@@H](C)O)C(=O)N[C@@H](CC(=O)O)C(=O)N[C@@H](C)C(=O)N[C@@H](CCCNC(=N)N)C(=O)N[C@@H](C)C(=O)N[C@@H](C)C(=O)N[C@@H](CCC(N)=O)C(=O)N[C@@H](CC(=O)O)C(=O)N[C@@H](Cc1ccccc1)C(=O)N[C@H](C(=O)N[C@@H](CCC(N)=O)C(=O)N[C@@H](Cc1c[nH]c2ccccc12)C(=O)N[C@@H](CC(C)C)C(=O)N[C@@H](CCS(C)(=O)=O)C(=O)N[C@@H](CC(=O)O)C(=O)N[C@H](C(N)=O)[C@@H](C)O)C(C)C [compound 12] (H-H[Aib]QGTFTSD[Phe(4-CH2NH2)]([AEEA-AEEA-γGlu-C16 diacid])SKYLDARAAQDFVQWL[Met(O2)]DT-NH2; N-terminus assumed)
1.13 nM	0.04 nM	0.03	CC(C)C[C@H](NC(=O)[C@H](Cc1ccc(O)cc1)NC(=O)[C@H](CCCCN)NC(=O)[C@H](CO)NC(=O)[C@H](Cc1ccc(O)cc1)NC(=O)[C@H](CC(=O)O)NC(=O)[C@H](CO)NC(=O)[C@@H](NC(=O)[C@H](Cc1ccccc1)NC(=O)[C@@H](NC(=O)CNC(=O)[C@H](CCC(N)=O)NC(=O)[C@@H](CO)NC(=O)[C@@H](N)Cc1c[nH]cn1)[C@@H](C)O)[C@@H](C)O)C(=O)N[C@@H](CC(=O)O)C(=O)N[C@@H](C)C(=O)N[C@@H](CCCNC(=N)N)C(=O)N[C@@H](C)C(=O)N[C@@H](C)C(=O)N[C@@H](CCCCNC(=O)COCCOCCNC(=O)COCCOCCNC(=O)CC[C@H](NC(=O)CCCCCCCCCCCCCCC(=O)O)C(=O)O)C(=O)N[C@@H](CC(=O)O)C(=O)N[C@@H](Cc1ccccc1)C(=O)N[C@H](C(=O)N[C@@H](CCC(N)=O)C(=O)N[C@@H](Cc1c[nH]c2ccccc12)C(=O)N[C@@H](CC(C)C)C(=O)N[C@@H](CCS(C)(=O)=O)C(=O)N[C@@H](CC(=O)O)C(=O)N[C@H](C(N)=O)[C@@H](C)O)C(C)C [compound 14] (H-H[dS]QGTFTSDYSKYLDARAAK([AEEA-AEEA-γGlu-C16 diacid])DFVQWL[Met(O2)]DT-NH2)
0.22 nM	0.01 nM	0.07	CC(C)C[C@H](NC(=O)[C@H](Cc1ccc(O)cc1)NC(=O)[C@H](CCCCN)NC(=O)[C@H](CO)NC(=O)[C@H](Cc1ccc(O)cc1)NC(=O)[C@H](CC(=O)O)NC(=O)[C@H](CO)NC(=O)[C@@H](NC(=O)[C@H](Cc1ccccc1)NC(=O)[C@@H](NC(=O)CNC(=O)[C@H](CCC(N)=O)NC(=O)[C@@H](CO)NC(=O)[C@@H](N)Cc1c[nH]cn1)[C@@H](C)O)[C@@H](C)O)C(=O)N[C@@H](CC(=O)O)C(=O)N[C@@H](C)C(=O)N[C@@H](CCCNC(=N)N)C(=O)N[C@@H](C)C(=O)N[C@@H](C)C(=O)N[C@@H](CCC(N)=O)C(=O)N[C@@H](CCCCNC(=O)COCCOCCNC(=O)COCCOCCNC(=O)CC[C@H](NC(=O)CCCCCCCCCCCCCCC(=O)O)C(=O)O)C(=O)N[C@@H](Cc1ccccc1)C(=O)N[C@H](C(=O)N[C@@H](CCC(N)=O)C(=O)N[C@@H](Cc1c[nH]c2ccccc12)C(=O)N[C@@H](CC(C)C)C(=O)N[C@@H](CCS(C)(=O)=O)C(=O)N[C@@H](CC(=O)O)C(=O)N[C@H](C(N)=O)[C@@H](C)O)C(C)C [compound 15] (H-H[dS]QGTFTSDYSKYLDARAAQK([AEEA-AEEA-γGlu-C16 diacid])FVQWL[Met(O2)]DT-NH2)
0.31 nM	0.03 nM	0.09	CC(C)C[C@H](NC(=O)[C@H](Cc1ccc(O)cc1)NC(=O)[C@H](CCCCN)NC(=O)[C@H](CO)NC(=O)[C@H](Cc1ccc(O)cc1)NC(=O)[C@H](CC(=O)O)NC(=O)[C@H](CO)NC(=O)[C@@H](NC(=O)[C@H](Cc1ccccc1)NC(=O)[C@@H](NC(=O)CNC(=O)[C@H](CCC(N)=O)NC(=O)[C@@H](CO)NC(=O)[C@@H](N)Cc1c[nH]cn1)[C@@H](C)O)[C@@H](C)O)C(=O)N[C@@H](CC(=O)O)C(=O)N[C@@H](CCC(=O)O)C(=O)N[C@@H](CCCNC(=N)N)C(=O)N[C@@H](C)C(=O)N[C@@H](C)C(=O)N[C@@H](CCC(N)=O)C(=O)N[C@@H](CCCCNC(=O)COCCOCCNC(=O)COCCOCCNC(=O)CC[C@H](NC(=O)CCCCCCCCCCCCCCC(=O)O)C(=O)O)C(=O)N[C@@H](Cc1ccccc1)C(=O)N[C@H](C(=O)N[C@@H](CCC(N)=O)C(=O)N[C@@H](Cc1c[nH]c2ccccc12)C(=O)N[C@@H](CC(C)C)C(=O)N[C@@H](CCS(C)(=O)=O)C(=O)N[C@@H](CC(=O)O)C(=O)N[C@H](C(N)=O)[C@@H](C)O)C(C)C [compound 16] (H-H[dS]QGTFTSDYSKYLDERAAQK([AEEA-AEEA-γGlu-C16 diacid])FVQWL[Met(O2)]DT-NH2)
0.1 nM	0.14 nM	1.44	CC(C)C[C@H](NC(=O)[C@H](Cc1ccc(O)cc1)NC(=O)[C@H](CCCCN)NC(=O)[C@H](CO)NC(=O)[C@H](Cc1ccc(O)cc1)NC(=O)[C@H](CC(=O)O)NC(=O)[C@H](CO)NC(=O)[C@@H](NC(=O)[C@H](Cc1ccccc1)NC(=O)[C@@H](NC(=O)CNC(=O)[C@H](CCC(N)=O)NC(=O)C(C)(C)NC(=O)[C@@H](N)Cc1c[nH]cn1)[C@@H](C)O)[C@@H](C)O)C(=O)N[C@@H](CC(=O)O)C(=O)N[C@@H](C)C(=O)N[C@@H](CCCNC(=N)N)C(=O)N[C@@H](C)C(=O)N[C@@H](C)C(=O)N[C@@H](CCCCNC(=O)COCCOCCNC(=O)COCCOCCNC(=O)CC[C@H](NC(=O)CCCCCCCCCCCCCCC(=O)O)C(=O)O)C(=O)N[C@@H](CC(=O)O)C(=O)N[C@@H](Cc1ccccc1)C(=O)N[C@H](C(=O)N[C@@H](CCC(N)=O)C(=O)N[C@@H](Cc1c[nH]c2ccccc12)C(=O)N[C@@H](CC(C)C)C(=O)N[C@@H](CC(C)C)C(=O)N[C@@H](CC(=O)O)C(=O)N[C@H](C(N)=O)[C@@H](C)O)C(C)C [compound 17] (H-H[Aib]QGTFTSDYSKYLDARAAK([AEEA-AEEA-γGlu-C16 diacid])DFVQWLLDT-NH2)
0.03 nM	0.07 nM	2.19	CC(C)C[C@H](NC(=O)[C@H](Cc1ccc(O)cc1)NC(=O)[C@H](CCCCN)NC(=O)[C@H](CO)NC(=O)[C@H](Cc1ccc(O)cc1)NC(=O)[C@H](CC(=O)O)NC(=O)[C@H](CO)NC(=O)[C@@H](NC(=O)[C@H](Cc1ccccc1)NC(=O)[C@@H](NC(=O)CNC(=O)[C@H](CCC(N)=O)NC(=O)C(C)(C)NC(=O)[C@@H](N)Cc1c[nH]cn1)[C@@H](C)O)[C@@H](C)O)C(=O)N[C@@H](CC(=O)O)C(=O)N[C@@H](C)C(=O)N[C@@H](CCCNC(=N)N)C(=O)N[C@@H](C)C(=O)N[C@@H](C)C(=O)N[C@@H](CCC(N)=O)C(=O)N[C@@H](CCCCNC(=O)COCCOCCNC(=O)COCCOCCNC(=O)CC[C@H](NC(=O)CCCCCCCCCCCCCCC(=O)O)C(=O)O)C(=O)N[C@@H](Cc1ccccc1)C(=O)N[C@H](C(=O)N[C@@H](CCC(N)=O)C(=O)N[C@@H](Cc1c[nH]c2ccccc12)C(=O)N[C@@H](CC(C)C)C(=O)N[C@@H](CC(C)C)C(=O)N[C@@H](CC(=O)O)C(=O)N[C@H](C(N)=O)[C@@H](C)O)C(C)C [compound 18] (H-H[Aib]QGTFTSDYSKYLDARAAQK([AEEA-AEEA-γGlu-C16 diacid])FVQWLLDT-NH2)
0.04 nM	0.08 nM	2.15	CC(C)C[C@H](NC(=O)[C@H](Cc1ccc(O)cc1)NC(=O)[C@H](CCCCN)NC(=O)[C@H](CO)NC(=O)[C@H](Cc1ccc(O)cc1)NC(=O)[C@H](CC(=O)O)NC(=O)[C@H](CO)NC(=O)[C@@H](NC(=O)[C@H](Cc1ccccc1)NC(=O)[C@@H](NC(=O)CNC(=O)[C@H](CCC(N)=O)NC(=O)C(C)(C)NC(=O)[C@@H](N)Cc1c[nH]cn1)[C@@H](C)O)[C@@H](C)O)C(=O)N[C@@H](CC(=O)O)C(=O)N[C@@H](C)C(=O)N[C@@H](CCCNC(=N)N)C(=O)N[C@@H](C)C(=O)N[C@@H](C)C(=O)N[C@@H](CCCCNC(=O)COCCOCCNC(=O)COCCOCCNC(=O)CC[C@H](NC(=O)CCCCCCCCCCCCCCC(=O)O)C(=O)O)C(=O)N[C@@H](CC(=O)O)C(=O)N[C@@H](Cc1ccccc1)C(=O)N[C@H](C(=O)N[C@@H](CCC(N)=O)C(=O)N[C@@H](Cc1c[nH]c2ccccc12)C(=O)N[C@@H](CC(C)C)C(=O)N[C@@H](CCS(C)(=O)=O)C(=O)N[C@@H](CC(=O)O)C(=O)N[C@H](C(N)=O)[C@@H](C)O)C(C)C [compound 19] (H-H[Aib]QGTFTSDYSKYLDARAAK([AEEA-AEEA-γGlu-C16 diacid])DFVQWL[Met(O2)]DT-NH2)
